Reference: ChEMBL document CHEMBL5727102, “Compounds and methods for inhibiting Cif virulence factor” (2019)

Assay: Biochemical Characterization of Cif Inhibitors: The first step in characterizing the two compounds identified by high throughput screening was to verify that the inhibition was reproducible using fresh preparations. Chemical libraries are often stored for extended periods of time, which can lead to breakdown products contributing to the assay outcome. While the inhibition observed with a fresh …

With `NC(Cc1cc(I)c(Oc2cc(I)c(O)c(I)c2)c(I)c1)C(=O)O` (stereo unspecified) [THYROXINE] the IC50 was greater than 100 µM.
